Active and inactive are the calls of the source. The rule behind the calls is not given here.
Assays:
Nakaseomyces glabratus [1] = experiment: Fungistatic activity against Candida glabrata NCIM 3236 at 500 ug/disk after 24 hr by disk diffusion method; type: functional, organism-based
Staphylococcus aureus [2] = experiment: Bacteriostatic activity against Staphylococcus aureus NCIM 5021 at 500 ug/disc after 24 hr by disk diffusion method; type: functional, organism-based
Candida albicans [3] = experiment: Fungistatic activity against Candida albicans NCIM 3074 at 500 ug/disk after 24 hr by disk diffusion method; type: functional, organism-based
Escherichia coli [4] = experiment: Bacteriostatic activity against Escherichia coli NCIM 2065 at 500 ug/disk after 24 hr by disk diffusion method; type: functional, organism-based
Nakaseomyces glabratus [5] = experiment: Antifungal activity against Candida glabrata NCIM 3236 at 500 ug/disk after 24 hr by disk diffusion method; type: functional; details: NCIM 3236, 24 h, read-out: IZ
Candida albicans [6] = experiment: Antifungal activity against Candida albicans NCIM 3074 at 500 ug/disk after 24 hr by disk diffusion method; type: functional; details: NCIM 3074, 24 h, read-out: IZ
Staphylococcus aureus [7] = experiment: Antibacterial activity against Staphylococcus aureus NCIM 5021 at 500 ug/disc after 24 hr by disk diffusion method; type: functional; details: NCIM 5021, 24 h, read-out: IZ
Escherichia coli [8] = experiment: Antibacterial activity against Escherichia coli NCIM 2065 at 500 ug/disk after 24 hr by disk diffusion method; type: functional; details: NCIM 2065, 24 h, read-out: IZ
Nakaseomyces glabratus [9] = experiment: Fungistatic activity against Candida glabrata NCIM 3236 at 25 ug/disk after 24 hr by disk diffusion method; type: functional, organism-based
Candida albicans [10] = experiment: Fungistatic activity against Candida albicans NCIM 3074 at 25 ug/disk after 24 hr by disk diffusion method; type: functional, organism-based
Staphylococcus aureus [11] = experiment: Bacteriostatic activity against Staphylococcus aureus NCIM 5021 at 20 ug/disc after 24 hr by disk diffusion method; type: functional, organism-based
Escherichia coli [12] = experiment: Bacteriostatic activity against Escherichia coli NCIM 2065 at 20 ug/disk after 24 hr by disk diffusion method; type: functional, organism-based
Candida albicans [13] = experiment: Inhibition of Candida albicans phospholipase at 124.96 uM after 30 min
[14] = Cytotoxicity against Homo sapiens (human) erythrocytes assessed as hemolytic activity at 124.96 uM after 1 hr; type: cell-based, Erythrocyte; details: read-out: Activity
[15] = Cytotoxicity against Homo sapiens (human) erythrocytes assessed as hemolytic activity at 15.62 uM after 1 hr; type: cell-based, Erythrocyte; details: read-out: Activity
Candida albicans [16] = experiment: Antifungal activity against Candida albicans NCIM 3074 assessed as inhibition of germ tube formation after 3 to 4 hr; type: functional
Candida albicans [17] = experiment: Fungicidal activity against Candida albicans NCIM 3074 after 24 hr by NCCLS broth microdilution method; type: functional; details: NCIM 3074, 24 h
Staphylococcus aureus [18] = experiment: Bactericidal activity against Staphylococcus aureus NCIM 5021 after 24 hr by NCCLS broth microdilution method; type: functional; details: NCIM 5021, 24 h
Candida albicans [19] = experiment: Antifungal activity against Candida albicans NCIM 3074 after 24 hr by NCCLS broth microdilution method; type: functional; details: NCIM 3074, 24 h
Staphylococcus aureus [20] = experiment: Antibacterial activity against Staphylococcus aureus NCIM 5021 after 24 hr by NCCLS broth microdilution method; type: functional; details: NCIM 5021, 24 h

Row | Compound | Activity (Nakaseomyces glabratus [1]) | Activity (Candida albicans [3]) | zone of inhibition at 500 µg/disc (Nakaseomyces glabratus [5]) [mm] | zone of inhibition at 500 µg/disc (Candida albicans [6]) [mm] | zone of inhibition at 500 µg/disc (Staphylococcus aureus [7]) [mm] | zone of inhibition at 500 µg/disc (Escherichia coli [8]) [mm] | other results
1 | CCCC[n+]1ccc(N)cc1 | inactive | inactive | – | – | – | – | Activity (Staphylococcus aureus [2]): Active; Activity (Escherichia coli [4]): Active
2 | CCCCCCCCn1ccc(=N)cc1 | – | – | 22 | 14 | 25 | 27 | –
3 | CCC[n+]1ccc(N)cc1 | inactive | inactive | – | – | – | – | Activity (Staphylococcus aureus [2]): Active; Activity (Escherichia coli [4]): Active
4 | CN[C@@H]1[C@H](O[C@H]2[C@H](O[C@H]3[C@H](O)[C@@H](O)[C@H](N=C(N)N)[C@@H](O)[C@@H]3N=C(N)N)O[C@@H](C)[C@]2(O)C=O)O[C@@H](CO)[C@H](O)[C@H]1O [STREPTOMYCIN] | – | – | – | – | 30 | 32 | Activity (Nakaseomyces glabratus [9]): inactive; Activity (Candida albicans [10]): inactive
5 | CCCCCCC[n+]1ccc(N)cc1 | – | – | 16 | 10.5 | 25 | 26 | –
6 | C[C@@H]1[C@H](O)[C@@H](C)/C=C/C=C/C=C/C=C/C=C/C=C/C=C/[C@H](O[C@@H]2O[C@H](C)[C@@H](O)[C@H](N)[C@@H]2O)C[C@@H]2O[C@](O)(C[C@@H](O)C[C@@H](O)[C@H](O)CC[C@@H](O)C[C@@H](O)CC(=O)O[C@H]1C)C[C@H](O)[C@H]2C(=O)O [AMPHOTERICIN B] | – | – | 14 | 10 | – | – | Activity (Staphylococcus aureus [11]): inactive; Activity (Escherichia coli [12]): inactive
7 | CCCCCCCCCCn1ccc(=N)cc1 | – | – | 26 | 23.5 | 28 | 29 | inhibition (Candida albicans [13]): Active; hemolysis at 1 h, 124.96 µM [14]: 97.4%; hemolysis at 1 h, 15.62 µM [15]: 0.57%
8 | CCn1ccc(=N)cc1 | inactive | inactive | – | – | – | – | Activity (Staphylococcus aureus [2]): inactive; Activity (Escherichia coli [4]): inactive
9 | CCCCCCn1ccc(=N)cc1 | – | Active | 10 | – | 21 | 18 | –
10 | CCCCCCCCCCCCCCCC[n+]1ccc(N)cc1.[Br-] | – | – | 30 | 26.5 | 36 | 34 | INH (Candida albicans [16]): 15.62 µM; MFC (Candida albicans [17]): 31.2 µM; MBC (Staphylococcus aureus [18]): 15.6 µM; MIC (Candida albicans [19]): 15.6 µM; MIC (Staphylococcus aureus [20]): < 15.6 µM
11 | CCCCC[n+]1ccc(N)cc1 | Active | inactive | – | – | 14 | 16 | –
12 | CCCCCCCCCCCCCC[n+]1ccc(N)cc1 | – | – | 8.5 | 9 | 6 | 6.5 | –

Source: ChEMBL document CHEMBL3045999, “Synthesis, characterization and antimicrobial activity of 4-amino-1-alkyl pyridinium salts” (Med Chem Res, 2012)
